Key:
[1] = target: T1, T-type calcium channel α1H (Cav3.2) (Homo sapiens, UniProt O95180); test: Two-electrode voltage clamp on Xenopus unfertilized oocytes expressing α1H T-type calcium channel; type: cell-based; settings: test potential -20 mV from -90 mV, read-out: inhibitory effect (blocking percentage), Xenopus oocyte (α1H) at 100 μM
T1 construct: expressed in transfected cells; host or cells: Xenopus laevis unfertilized oocytes injected with cRNA (pGEM-HEA linearised with AflII, T7 transcription)
Protocol: In order to express a gene encoding T-type calcium channel α1H (Cav3.2) (Cribbs, L. L. et al., Circ. Res., 1998, 83, 103-109) in unfertilized Xenopus oocytes, pGEM-HEA was treated with restriction enzyme AflII to obtain a DNA fragment containing 5′-terminal region having the T-type calcium channel cDNA (AF051946). cRNA having a corresponding sequence to that of the fragment was synthesized using T7 RNA polymerase according to the manufacturer's instructions (mMESSAGE mMACHINE kit, Ambion, Austin, U.S.A.). The synthesized cRNA was quantified by measuring the O.D. value with a spectrophotometer. At this time, unfertilized oocytes were prepared from female Xenopus laevis (Xenopus I, U.S.A.) according to the following method. After the frog's abdomen was incised by about 1 cm, three to four lobes were detached therefrom with scissors and separated into small pieces to which several oocytes were attached. The small pieces were hydrolyzed in OR solution (82.5 mM NaCl, 2.5 mM KCl, 1 mM MgCl2, 5 mM HEPES, pH 7.6) and supplemented with collagenase type IA (Sigma, U.S.A.) to remove defolliculation. After selecting healthy oocytes with a dissecting microscope, they were soaked in SOS solution (100 mM NaCl, 2 mM KCl, 1.8 mM CaCl2, 1 mM MgCl2, 5 mM HEPES, 2.5 mM pyruvate, […] gentamicin, pH 7.6) for 3 to 4 hours to revitalize them. 2 to 5 ng of cRNA was injected into each oocyte using Nano-injector. The oocytes were subjected to a test in order to examine the electrical properties of the channel expressed therefrom 4 to 5 days after the injection while being maintained at 18° C.
The current of the calcium channel expressed from the Xenopus unfertilized oocytes was measured according to a two-electrode voltage clamping method. The current was measured in 10 mM Ba^2+ solution (10 mM Ba(OH)2, 90 mM NaOH, 1 mM KCl, 0.1 mM EDTA, 5 mM HEPES, pH was adjusted to 7.4 with methanesulfonic acid). At this time, the voltage clamp and current measurement were regulated with an amplifier for unfertilized oocytes (Model OC-725C, Warner Instrument Corp., U.S.A.), and analog signals were converted into digital signals using Digidata 2000A (Analog-Digital converter, Axon Instrument). The acquisition, storage and analysis of all data were recorded in Pentium IV computer via pCLAMP8. The data were mainly collected at 5 KHz and filtered at 1 KHz (Model 902 filter; Frequency devices located at Harverhill, Mass., U.S.A.). The T-type current was generated by imposing test electric potential of −20 mV every 15 seconds on the unfertilized oocytes, the potential of which was fixed at −90 mV. A blocking percentage was calculated by comparing the […] before and after the drug treatment.

[2] = system: N-type (HVA) Ca2+ channel; test: Patch clamp of high voltage-activated calcium current in MPG (major pelvic ganglion) neurons; type: cell-based, rat; settings: 10 μM; for selectivity for the sub-types of the calcium channel (T-type LVA vs N-type HVA): from Table 3; for Inhibitory effect, Ca2+ channel N-type (HVA): MPG neuron, n.i. = no inhibitory effect
Protocol: In order to examine the selectivity of the compound of the present invention for other ion channels, the inhibitory effects of KYS05001, KYS05041 and KYS05042 on […] and high voltage-activated Ca2+ channel (HVA) were measured according to a conventional method (Lee, J.-H. et al., J. Neurophysiol. 2002, 87, 2844-2850) using MPG (major pelvic ganglion).
Male Sprague-Dawley rats having about 250 g of an average body weight were employed as experimental animals. After the rats were anesthetized with sodium pentobarbital (50 mg/kg, i.p.), the abdomen was cut open immediately. MPG located on the left side of the prostate was extracted and then transferred in cold (4° C.) Hank's balanced salt solution (HBSS, GibcoBRL). The connective tissue encompassing the ganglion was stripped therefrom and a small gap was made carefully on the naked ganglion with a sharp knife. Then, the ganglion was cultured in 10 ml of modified Earle's balanced salt solution (EBSS, pH 7.4, GibcoBRL) supplemented with 0.7 mg/ml of collagenase (type D), 0.3 mg/ml of trypsin and 0.1 mg/ml of DNAse type I at 35° C. for 1 hour (Zhu et al., J. Physiol. Lond. 1995, 489, 363-375). At this time, 3.6 g/l of glucose and 10 mM HEPES were added to EBSS. After the cultivation was completed, the culture flask was shaken to separate call clusters into a single nerve cell and subjected to centrifugation at 1000 rpm with a clinical centrifuge (International Equipment Company, Mass., U.S.A.). The separated single nerve cells were re-suspended in MEM (GibcoBRL) supplemented with 10% fetal bovine serum, 1% glutamine and 1% penicillin/streptomycin. They were then spread on a polystyrene culture dish (35 mm) coated with poly-L-lysine. The culture dish was incubated at 37° C. humidified incubator (95% air-5% CO2) and the cells were used in the following experiment within 24 hours after the separation.
The voltage-dependent calcium and sodium current were recorded according to a typical patch clamping method using a patch clamp amplifier (Axopatch 1D, Axon Instruments, Foster City, Calif., U.S.A.) at a whole-cell ruptured configuration (Hamill et al., Pflügers Arch. 1981, 391, 85-100). An electrode was made from a borosilicate glass capillary tube (outer diameter; 1.65 mm, inner diameter; 1.2 mm, Corning 7052, Garner Glass Co., Claremont, Calif., U.S.A.) using P-97 Flaming-Brown micropipette puller (Sutter Instrument Co., Novato, Calif., U.S.A.) and forged smoothly by heating with a microforge. The electrode showing 1˜3 MΩ of resistance when filled with a solution was used for the following experiment. The culture dish containing the nerve cells was placed on an inverted microscope and the cell exterior solution was flowed into the dish at a flow rate of about 1˜2 ml/min. The membrane capacitance and series resistance were corrected by 80% or more with an amplifier. The voltage generation and record of calcium current were carried out using S4 software (provided by Dr. Stephen R. Ikeda, National Institute on Alcohol Abuse and Alcoholism, NIH, USA) equipped in Macintosh computer, which was connected to an analogue/digital converter (Digidata 1200, Axon Instruments Co.). The calcium current, which passed through a low band pass filter at 2˜5 kHz, was stored in Macintosh computer and analyzed with IGOR PRO (Wave-Metrics, Lake Oswego, Oreg., U.S.A.). All the experiments were conducted at a room temperature ranging from 20 to 22° C.
The electrode for measuring the calcium current was filled with the solution comprising 120 mM N-methyl-D-glucamine (NMG) methanesulfonate (MS), 20 mM tetraethylammonium (TEA)-MS, 20 mM HCl, 11 mM EGTA, 10 mM HEPES, 1 mM CaCl2, 4 mM MgATP, 0.3 mM Na2GTP and 14 mM tris-phosphocreatine (pH 7.2, 290 mOsm). The extracellular infusion fluid was composed of 140 mM MS, 145 mM TEA-OH, 10 mM HEPES, 15 mM glucose, 10 mM CaCl2 and 0.0003 mM tetrodotoxin (TTX, pH 7.4, 320 mOsm). […]

T1 sequence (O95180 whole entry): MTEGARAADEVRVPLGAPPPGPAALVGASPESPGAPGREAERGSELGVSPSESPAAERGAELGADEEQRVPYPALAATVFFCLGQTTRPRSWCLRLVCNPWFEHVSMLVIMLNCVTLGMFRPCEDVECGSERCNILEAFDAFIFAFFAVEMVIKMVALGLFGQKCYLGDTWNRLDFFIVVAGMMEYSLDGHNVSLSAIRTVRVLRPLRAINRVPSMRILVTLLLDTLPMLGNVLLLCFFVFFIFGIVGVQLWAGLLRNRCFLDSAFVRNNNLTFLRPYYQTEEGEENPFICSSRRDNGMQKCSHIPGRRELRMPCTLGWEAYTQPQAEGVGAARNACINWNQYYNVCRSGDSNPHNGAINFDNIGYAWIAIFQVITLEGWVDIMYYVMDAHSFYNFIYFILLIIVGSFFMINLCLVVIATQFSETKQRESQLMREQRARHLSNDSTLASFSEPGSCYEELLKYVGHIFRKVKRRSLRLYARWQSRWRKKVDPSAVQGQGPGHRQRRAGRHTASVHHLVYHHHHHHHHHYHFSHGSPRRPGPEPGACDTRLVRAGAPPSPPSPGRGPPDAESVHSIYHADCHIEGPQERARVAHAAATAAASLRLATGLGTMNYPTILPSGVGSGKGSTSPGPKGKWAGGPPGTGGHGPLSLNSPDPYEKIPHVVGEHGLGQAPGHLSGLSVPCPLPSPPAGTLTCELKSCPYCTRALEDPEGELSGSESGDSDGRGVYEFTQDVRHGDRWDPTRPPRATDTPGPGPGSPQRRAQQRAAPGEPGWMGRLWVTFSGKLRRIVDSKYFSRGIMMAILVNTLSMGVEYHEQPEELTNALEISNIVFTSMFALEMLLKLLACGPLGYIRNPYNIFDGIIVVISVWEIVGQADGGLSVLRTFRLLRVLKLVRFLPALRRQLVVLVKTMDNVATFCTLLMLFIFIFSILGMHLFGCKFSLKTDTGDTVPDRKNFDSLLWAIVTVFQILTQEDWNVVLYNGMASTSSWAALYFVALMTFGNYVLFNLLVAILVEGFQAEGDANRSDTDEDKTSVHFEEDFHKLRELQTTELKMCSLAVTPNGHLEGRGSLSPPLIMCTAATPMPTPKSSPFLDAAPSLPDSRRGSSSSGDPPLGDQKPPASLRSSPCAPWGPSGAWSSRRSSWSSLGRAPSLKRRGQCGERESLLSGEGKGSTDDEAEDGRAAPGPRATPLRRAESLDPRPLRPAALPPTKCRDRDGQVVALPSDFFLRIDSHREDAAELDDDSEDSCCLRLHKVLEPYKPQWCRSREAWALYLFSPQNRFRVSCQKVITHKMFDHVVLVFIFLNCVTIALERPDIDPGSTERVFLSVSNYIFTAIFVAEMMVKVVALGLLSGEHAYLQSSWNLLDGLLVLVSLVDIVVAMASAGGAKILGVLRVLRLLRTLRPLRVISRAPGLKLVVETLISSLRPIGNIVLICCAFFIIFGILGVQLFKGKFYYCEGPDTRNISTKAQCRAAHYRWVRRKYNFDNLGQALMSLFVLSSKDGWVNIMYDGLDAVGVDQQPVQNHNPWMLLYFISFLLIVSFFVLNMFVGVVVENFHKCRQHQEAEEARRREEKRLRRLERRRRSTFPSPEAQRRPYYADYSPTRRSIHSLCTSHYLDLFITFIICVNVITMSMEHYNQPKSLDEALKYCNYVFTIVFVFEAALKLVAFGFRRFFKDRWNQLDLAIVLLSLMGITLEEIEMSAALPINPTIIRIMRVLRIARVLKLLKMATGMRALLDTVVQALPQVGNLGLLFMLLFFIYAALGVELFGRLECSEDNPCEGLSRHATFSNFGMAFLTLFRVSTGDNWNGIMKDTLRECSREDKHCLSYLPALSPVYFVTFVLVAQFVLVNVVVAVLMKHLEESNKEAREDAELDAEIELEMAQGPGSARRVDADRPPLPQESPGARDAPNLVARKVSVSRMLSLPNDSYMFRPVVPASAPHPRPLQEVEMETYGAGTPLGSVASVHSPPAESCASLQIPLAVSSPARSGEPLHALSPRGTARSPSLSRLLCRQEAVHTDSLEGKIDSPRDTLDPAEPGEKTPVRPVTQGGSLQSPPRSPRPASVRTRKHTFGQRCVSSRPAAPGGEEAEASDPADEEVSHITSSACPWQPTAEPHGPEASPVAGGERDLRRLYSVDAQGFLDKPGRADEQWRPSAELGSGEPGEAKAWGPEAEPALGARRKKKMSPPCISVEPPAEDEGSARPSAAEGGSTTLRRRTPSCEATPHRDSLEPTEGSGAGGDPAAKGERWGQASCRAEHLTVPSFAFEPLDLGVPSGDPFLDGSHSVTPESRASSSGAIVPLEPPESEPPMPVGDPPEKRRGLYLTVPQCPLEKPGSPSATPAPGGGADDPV

For `O=C(CC1c2ccccc2N=C(N2CCCCC2)N1c1ccccc1)NCc1ccccc1` (stereo not drawn) [KYS05001], the inhibition at 100 µM [1] was 77%, the “selectivity for the sub-types of the calcium channel (T-type LVA vs N-type HVA)” value [2] was “selectively inhibited only the T-type (LVA) calcium channel” and the “Inhibitory effect, Ca2+ channel N-type (HVA)” value (shortened to “Inhibitory effect”) [2] was “n.i.^b”.

In the case of `Cc1ccc(S(=O)(=O)Nc2ccc(CNC(=O)CC3c4ccccc4N=C(N4CCCCC4)N3c3ccccc3)cc2)cc1` (stereo not drawn) [KYS05041, 4-{N-[4-(4-methylbenzenesulfonylamido)benzyl]acetamido}-3-phenyl-2-(piperidine-1-yl)-3,4-dihydroquinazoline], the inhibition at 100 µM [1] is reported as 84.7%, the “selectivity for the sub-types of the calcium channel (T-type LVA vs N-type HVA)” value [2] is reported as “relatively lower selectivity” and the “Inhibitory effect” value [2] is reported as greater than 89%.

`O=C(CC1c2ccccc2N=C(N2CCCCC2)N1c1ccccc1)NCc1ccc(NS(=O)(=O)c2ccc(F)cc2)cc1` (stereo not drawn) [KYS05042, 4-{N-[4-(4-fluorobenzenesulfonylamido)benzyl]acetamido}-3-phenyl-2-(piperidine-1-yl)-3,4-dihydroquinazoline] was tested, and the inhibition at 100 µM [1] was 80.5%, the “selectivity for the sub-types of the calcium channel (T-type LVA vs N-type HVA)” value [2] was “relatively lower selectivity” and the “Inhibitory effect” value [2] was greater than 90%.

From patent publication US7271260B2, “3,4-dihydroquinazoline derivatives as T-type calcium channel blockers and method of preparing the same” (Korea Institute of Science and Technology, priority 2004, dated 2007)
